Where “and” joins values, the source holds several entries; their conditions need not be identical. Equal entries are not always repeated. Structures can show the parent of a compound that is named as a salt.

Experiment in the first data set: not given
Details: not given
`Oc1ccccc1OCCCCCCCCN1CCOCC1` (as salt: salt) [Compound 1, 4-8-(2-hydroxyphenoxy) octylmorpholine] registered a melting point of 137 to 139 °C.
In the case of `CC(=O)c1ccccc1OCCCCCCN(C)C.Cl` [Compound 8, 6-(2-acetylphenoxy)-1-dimethylaminohexane hydrochloride], the melting point is 138 to 141 °C.

Another data set is described as follows: Insulin - Oral Delivery (glucose levels in serum after oral dosing of delivery agent compound with human zinc insulin). In kind it is in vivo, Male Sprague-Dawley rats. The settings on record: rat, delivery agent compound 200 mg/kg + insulin 0.5 mg/kg, volume dose 2 ml/kg. The procedure:
Oral dosing (PO) compositions of delivery agent compound and human zinc insulin (minimum 26 IU/mg available from Calbiochem-Novabiochem Corp, La Jolla, Calif.) were prepared in deionized water. Typically, 500 mg of delivery agent compound was added to 1.5 ml of water. The solution was vortexed, then heated (about 37° C.) and sonicated. The pH was adjusted to about 7 to 8.5 with NaOH or HCl. Additional NaOH was added, if necessary, to achieve uniform solubility, and the pH re-adjusted to about 7 to 8.5. Water was then added to bring the total volume to about 2.4 ml and vortexed. About 1.25 mg insulin from an insulin stock solution ([…] made from 0.5409 g insulin and 18 ml deionized water, adjusting with HCl and NaOH to pH 8.15 and to obtain a clear solution using […]) was added to the solution and mixed by inverting. The solution may be used in the dosing protocol immediately, or alternatively, the solution may be placed into a 37° C. water bath for one hour prior to dosing. The final delivery agent compound dose, insulin dose and dose volume amounts are listed below in Table 1.
The typical dosing and sampling protocols were as follows. […] A dosing group of five animals was administered one of the dosing solutions. […] The dosing solution was administered by pressing the syringe plunger.
As to “4-(4-(2-hydroxyphenoxy)butyl)morpholinium Citrate [Compound 7]”, the “Glucose Levels in Serum (% change from baseline ± SD)” value is reported as −11.7 ± 3.4%.
In the case of `Oc1ccccc1OCCCCCCCCN1CCOCC1` [Compound 1, 4-8-(2-hydroxyphenoxy) octylmorpholine], the “Glucose Levels in Serum (% change from baseline ± SD)” value is −5.9 ± 4.6% and 0.3 ± 8.2%.
On the same count and under the same terms, in the case of `OCCN(CCO)CCCCCCCCOc1ccccc1O` [Compound 2, 8-(2-hydroxyphenoxy) octyldiethanolamine) citrate] it was −10.8 ± 6.8%; in that of `Oc1ccccc1OCCCCCCCN1CCOCC1` [Compound 3, 7-(4-(2hydroxyphenoxy)heptylmorpholinium citrate], −9.8 ± 4%.
Still for that read-out and setting: as for `Oc1ccc(OCCCCCCN2CCOCC2)cc1` [Compound 4], the figure is −2.3 ± 10.6%; as for `NCCCCCCCCOc1ccc(O)cc1` [Compound 6, 8-(4-hydroxyphenoxy)octanamine], 6.4 ± 17.1%.
Regarding `CC(=O)c1ccccc1OCCCCCCN(C)C.Cl` [Compound 8, 6-(2-acetylphenoxy)-1-dimethylaminohexane hydrochloride], the “Glucose Levels in Serum (% change from baseline ± SD)” value is −8.2 ± 9.5%.

A further data set in a line: Oral BIBN4096BS Delivery (peak BIBN4096BS concentration after oral gavage with delivery agent compound). The settings on record: rat, delivery agent compound 200 mg/kg + BIBN4096BS 25 mg/kg, 1 ml/kg.
Procedure: Oral gavage (PO) dosing solutions of delivery agent compound and the calcitonin gene-related peptide antagonist, 1-piperidinecarboxamide, N-[2-[[5-amino-1-[[4-(4-pyridinyl)-1-piperazinyl)carbonyl]pentyl]amino]-1-[(3,5-dibromo-4-hydroxyphenyl)methyl]-2-oxoethyl]-4(1,4-dihydro-2-oxo-3(2H0-quinazolinyl)-. [R—(R*,S*)]- (BIBN4096BS) in water were prepared. […] The final dosing solutions were prepared by mixing the delivery agent compound with a BIBN4096BS stock solution and diluting to the desired volume (usually 1.0 mL). If necessary, the pH of the mixture was adjusted by the addition of aliquots of aqueous hydrochloric acid solution of an appropriate normality until the final pH of the dissolved delivery agent compound was below 7.0. The final compound amounts per dose were 25 mg/kg of BIBN4096BS and 200 mg/kg of delivery agent compound in a total volume of 1 mL/kg.
The typical dosing and sampling protocols were as follows. Male Sprague-Dawley rats weighing between 200-250 g were fasted for 24 hours and administered ketamine (44 mg/kg) and chlorpromazine (1.5 mg/kg) 15 minutes prior to dosing. A dosing group of five rats was administered one of the dosing solutions. […] Plasma BIBN4096BS concentrations were quantified by using a liquid chromatography/mass spectrometry/mass spectrometry assay method using UV detection. […]
Consider `CS(=O)(=O)O.Oc1ccccc1OCCCCCCCCN1CCOCC1` [1 (Mesylate), (4-(8-(2-hydroxyphenoxy)octyl)morpholine)mesylate], for which the “Mean Peak Serum ± sd ng/ml (BIBN4096BS)” value is 408 ± 340 ng/mL and 608 ± 552 ng/mL.

The values above are taken from patent US7297794B2, “Phenoxy amine compounds and compositions for delivering active agents” (Emisphere Technologies, Inc., priority 2001, dated 2007).
